In experiment [1] the test system is HT-29. The experiment can be described thus: Antiproliferative activity in human HT-29 cells incubated for 48 hrs by MTT assay. In kind it is functional, cell-based. Particulars: HT-29, 48 h.
The subject of experiment [2] is HCT-116. The experiment can be described thus: Cytotoxicity against human HCT-116 cells assessed as inhibition of cell proliferation measured after 48 hrs by MTT assay. It is filed as functional, cell-based. Particulars: HCT-116, 48 h.
In the next experiment the test system is RKO. The experiment can be described thus: Cytotoxicity against human RKO cells assessed as inhibition of cell proliferation measured after 48 hrs by MTT assay. It is filed as functional, cell-based.
The test system of experiment [3] is SW480. The experiment can be described thus: Cytotoxicity against human SW480 cells assessed as inhibition of cell proliferation measured after 48 hrs by MTT assay. In kind it is functional, cell-based. Particulars: Homo sapiens, SW480, 48 h.
Experiment [4] deals with HCT-116. Kind of experiment: Antiproliferative activity against human HCT-116 cells incubated for 48 hrs by MTT assay. Particulars: HCT-116, 48 h. It is filed as functional, cell-based.
The test system of experiment [5] is HT-29. The experiment can be described thus: Antiproliferative activity against human HT-29 cells incubated for 48 hrs by MTT assay. In kind it is functional, cell-based. Particulars: HT-29, 48 h.
The test system of experiment [6] is HCT-116. The experiment can be described thus: Antiproliferative activity against human HCT-116 cells. In kind it is functional, cell-based.
The test system of experiment [7] is SW480. The experiment can be described thus: Antiproliferative activity against human SW480 cells. It is filed as functional, cell-based.
Experiment [8] has as its system LoVo. The experiment can be described thus: Antiproliferative activity in human LoVo cells incubated for 72 hrs by MTT assay. In kind it is functional, cell-based.
The test system of experiment [9] is HT-29. Kind of experiment: Cytotoxicity against human HT-29 cells. It is filed as functional, cell-based.
The next experiment concerns COLO 205. Kind of experiment: Cytotoxicity against human COLO 205 cells. In kind it is functional, cell-based.
A further experiment has as its system KM12. Kind of experiment: Cytotoxicity against human KM12 cells. In kind it is functional, cell-based.
Experiment [10] concerns HCT-116. The experiment can be described thus: Cytotoxicity against human HCT-116 cells. In kind it is functional, cell-based. The following applies: Homo sapiens, HCT-116.
Another experiment relates to SW-620. The experiment can be described thus: Cytotoxicity against human SW620 cells. In kind it is functional, cell-based. The following applies: Homo sapiens, SW-620.
The subject of experiment [11] is HCT-116. Kind of experiment: Cytotoxicity against human HCT-116 cells measured after 24 hrs by MTT assay. Particulars: HCT-116, 24 h. In kind it is functional, cell-based.
The subject of experiment [12] is HT-29. The experiment can be described thus: Cytotoxicity against human HT-29 cells measured after 24 hrs by MTT assay. In kind it is functional, cell-based. Particulars: HT-29, 24 h.
Experiment [13] relates to HCT-116. The experiment can be described thus: Antiproliferative activity against human HCT-116 cells measured after 48 hrs by MTT assay. It is filed as functional, cell-based. The following applies: HCT-116, 48 h.
Experiment [14] concerns LoVo. The experiment can be described thus: Antiproliferative activity against human LoVo cells measured after 48 hrs by MTT assay. It is filed as functional, cell-based.
The subject of the next experiment is HCT-8. Kind of experiment: Antiproliferative activity against human HCT-8 cells measured after 48 hrs by MTT assay. It is filed as functional, cell-based. Particulars: HCT-8, 48 h.
Experiment [15] has as its system SW480. Kind of experiment: Antiproliferative activity against human SW480 cells incubated for 24 hrs by CCK-8 method. In kind it is functional, cell-based.
For the next experiment, the system named is SW 1116. The experiment can be described thus: Antiproliferative activity against human SW 1116 cells incubated for 24 hrs by CCK-8 method. It is filed as functional, cell-based.
Experiment [16] relates to HCT-116. The experiment can be described thus: Cytotoxicity against human HCT-116 cells measured after 48 hrs by MTT colorimetric assay. The following applies: HCT-116, 48 h. In kind it is functional, cell-based.
The next experiment deals with Caco-2. Kind of experiment: Antiproliferative activity against human Caco-2 cells measured after 24 hrs by MTT assay. In kind it is functional, cell-based. The following applies: Caco-2, 24 h.
Another experiment deals with SW837. The experiment can be described thus: Antiproliferative activity against human SW837 cells. In kind it is functional.
The next experiment concerns CT26. The experiment can be described thus: Antiproliferative activity against mouse CT26 cells assessed as inhibition of cell viability. In kind it is functional, cell-based.
Experiment [17] deals with HCT-116. The experiment can be described thus: Antiproliferative activity against human HCT-116 cells assessed as inhibition of cell viability. It is filed as functional, cell-based.
The subject of the next experiment is COLO 320. The experiment can be described thus: Antiproliferative activity in human COLO 320 cells incubated for 24 hrs by MTT assay. In kind it is functional.

Molecule `C=CCCCOc1cc(O)c2c(c1)OC(c1ccc(O)cc1)CC2=O` (stereo not given) came in with an IC50 in the experiment on HT-29 [1] of 23.4 µM.

Consider `C[C@@H]1CC[C@@]2(OC1)O[C@H]1C[C@H]3[C@@H]4CC=C5C[C@H](O[C@@H]6O[C@H](CO)[C@@H](O)[C@H](O[C@@H]7O[C@H](CO)[C@@H](O)[C@H](O)[C@H]7O)[C@H]6O[C@@H]6O[C@@H](C)[C@H](O)[C@@H](O)[C@H]6O)CC[C@]5(C)[C@H]4CC[C@]3(C)[C@H]1[C@@H]2C`, for which the values for the IC50 in the experiment with HCT-116 [2], in the experiment on RKO and in the experiment with SW480 [3] were 5.47 µM, 3.12 µM and 2.67 µM, respectively. Consider `O=c1cc(-c2ccc(Oc3c(-c4ccc(O)cc4)oc4cc(O)cc(O)c4c3=O)cc2)oc2cc(O)cc(O)c12`, for which the IC50 in the experiment on HCT-116 [4] turned out to be 32 µM; in the experiment on HT-29 [5], 18.8 µM.

`O=C1C2C3C=CC(C4CC34)C2C(=O)N1c1ccc(Cc2ccncc2)cc1` (stereo not given): the IC in the experiment with HCT-116 [6] and in the experiment on SW480 [7] was 10 µM in each case. Take `O=C1/C(=C/c2ccccc2Br)CSC/C1=C\c1ccccc1Br`: the IC50 in the experiment with LoVo [8] stood at 1 µM.

For the molecule `c1ccc(-c2ccc(-c3csc(N/N=C4\CCc5ccccc54)n3)cc2)cc1`, the values for the IC50 in the experiment on HT-29 [9], in the experiment with COLO 205 and in the experiment with KM12 were 0.44 µM, 0.98 µM and 0.41 µM, respectively. For `C=CC(=O)Nc1ccccc1Nc1nc(Nc2ccc(CN3CCC(C(=O)NO)CC3)cc2)ncc1Cl`, the IC50 in the experiment on HCT-116 [10] is 0.134 µM; in the experiment on SW-620, 0.309 µM. For the molecule `C[C@@H]1CC[C@@]2(OC1)O[C@H]1C[C@H]3[C@]4(C)CC=C5C[C@@H](O[C@@H]6O[C@H](CO)[C@@H](O[C@@H]7O[C@@H](C)[C@H](O[C@@H]8O[C@@H](C)[C@H](O)[C@@H](O)[C@@H]8O)[C@@H](O)[C@H]7O)[C@H](O)[C@H]6O[C@@H]6O[C@@H](C)C(O)[C@@H](O)[C@H]6O)CC[C@]5(C)[C@H]4CC[C@]3(C)[C@H]1[C@@H]2C` (stereo not given in full), the IC50 in the experiment on HCT-116 [11] was 3.73 µM; in the experiment on HT-29 [12], 1.89 µM. `CO[C@H]1C(=O)[C@]2(C)[C@@H](OC)C[C@H]3OC[C@@]3(OC(C)=O)[C@H]2[C@H](OC(=O)c2ccccc2)[C@]2(O)C[C@H](OC(=O)[C@H](O)[C@@H](NC(=O)OC(C)(C)C)c3ccccc3)C(C)=C1C2(C)C` [CABAZITAXEL]: the IC50 in the experiment on HCT-116 [13] is 0.029 µM; in the experiment with LoVo [14] it was 0.063 µM; in the experiment with HCT-8, 0.532 µM. IVERMECTIN: the results for the IC50 with SW480 [15] and in the experiment with SW 1116 were 15.3 µM and 6.27 µM, respectively. In the experiment with HCT-116 [16], `CC(=O)Oc1ccccc1C(=O)Nc1ncc([N+](=O)[O-])s1` [NITAZOXANIDE] registered an IC50 of 11.2 µM.

On to `CC[C@@H](C(=O)[C@@H](C)[C@@H](O)[C@H](C)[C@@H]1O[C@@H]([C@@H](CC)C(=O)O)CC[C@@H]1C)[C@H]1O[C@]2(C=C[C@@H](O)[C@]3(CC[C@@](C)([C@H]4CC[C@](O)(CC)[C@H](C)O4)O3)O2)[C@H](C)C[C@@H]1C` [SALINOMYCIN], for which the IC50 with Caco-2 was found to be 15.7 µM.

In the experiment with Caco-2, `C[S+]([O-])CCCCN=C=S` (stereo not given) [SULFORAPHANE] gave an IC50 of 55.3 µM.

Consider `Cc1ncsc1-c1ccc([C@H](C)NC(=O)[C@@H]2C[C@@H](O)CN2C(=O)[C@@H](NC(=O)CCCCCC(=O)N2CCN(CC[C@H](CSc3ccccc3)Nc3ccc(S(=O)(=O)NC(=O)c4ccc(N5CCN(CC6=C(c7ccc(Cl)cc7)CCC(C)(C)C6)CC5)cc4)cc3S(=O)(=O)C(F)(F)F)CC2)C(C)(C)C)cc1` [DT-2216], for which the IC in the experiment with SW837 worked out at 1 µM. As to `C/C=C1/CN(C)[C@H]2Cc3c([nH]c4ccccc34)[C@H](c3cc4[nH]c5c(c4cc3OC)CCN3C[C@@H]4C[C@H](CC)[C@H]3[C@@]5(C(=O)OC)C4)C[C@@H]1C2C(=O)OC` (stereo not given in full), the IC50 was found to be 1.38 µM with CT26 and 4.1 µM in the experiment on HCT-116 [17]. As to `COc1ccc(-c2cc(=O)c3c(O)c(OC)c(O)c(OC)c3o2)cc1` [NEVADENSIN], the IC50 was determined as 5 µM in the experiment with HCT-116 [6] (Homo sapiens, HCT-116) and 5 µM in the experiment on SW480 [7] (Homo sapiens, SW480). For `O=c1c(O)c(-c2ccc(O)c(O)c2)oc2cc(O)cc(O)c12` [QUERCETIN], the IC in the experiment with COLO 320 was 50 µM.

The values above are taken from ChEMBL document CHEMBL5512605, “Targeted regulated cell death with small molecule compounds in colorectal cancer: Current perspectives of targeted therapy and molecular mechanisms” (Eur J Med Chem, 2024).
